These are literature values, as cited in paper PMC10071776, “Binding proteins of destruxin A from Metarhizium against insect cell” (BMC Microbiology, 2023).

Where a SMILES comes first, the peptide text is derived from it. [ ]: non-standard residue; d: D form. dLac(3-vinyl) = C=CC[C@@H](O)C(=O)O; NMeV = CN[C@H](C(=O)O)C(C)C; NMeA = CN[C@@H](C)C(=O)O; βAla = NCCC(=O)O

In one data set the test system is hemocyte ATPase. As to conditions: higher than DA; ref [13]. An excerpt: (§1) The multi-target strategy of destruxin has resulted from the evolution of interactions between Metarhizium spp. and insects. When Metarhizium spp. invades a host insect, it secretes a variety of structurally similar destruxins that attack as many tissues and organs. These produce a diseased state, weakening insect resistance and enabling successfully fungus colonization.

The test system of another data set is insects. As to conditions: no reference given.
Excerpt: as §1

Another data set deals with tumor. As to conditions: no reference given.
Excerpt: as §1

The conditions of data set [1]: stated in SPR method; no measurement described, no reference given. A general note: SPR reads the build-up and loss of mass on a sensor chip optically.

Take destruxin B [DB]: in the data set with hemocyte ATPase, the “affinity of DB relative to DA” value was 100 times. In addition, the “insecticidal activity relative to DA” value in the data set with insects was “lower insecticidal activity than DA”. Moreover, the “antitumor activity relative to DA” value in the data set on tumor was “greater antitumor activity than DA”.
On to `C=CC[C@H]1OC(=O)CCNC(=O)[C@H](C)N(C)C(=O)[C@H](C(C)C)N(C)C(=O)[C@H]([C@@H](C)CC)NC(=O)[C@@H]2CCCN2C1=O` [DA, Destruxin A] (cyclo(I[NMeV][NMeA][βAla][dLac(3-vinyl)]P)), for which the solubility in water result in data set [1] is reported as “insoluble in water”.
